Test results reported in patent US4897379A, “N-[N^α -(1(S)-carboxy-3-cyclohexylpropyl)-L-lysyl]-N-cyclopentylglycine as antihypertensives” (Asahi Breweries Ltd., priority 1987, dated 1990).

What was measured:
[1] = test system: angiotensin converting enzyme; conditions: Nature 288, 280 (1980); Chem. Pharm. Bull. 34, 1128 (1986); cited from earlier work
rabbit lung ACE = target: T1, rabbit lung ACE (Oryctolagus cuniculus, UniProt P12822); assay: Inhibition of rabbit lung ACE by the method of Friedland and Silverstein; assay type: biochemical; conditions: for IC50: rabbit lung ACE, method of Friedland and Silverstein, read-out: IC50 (M) = Concentration inhibiting 50% of the activity of rabbit lung ACE
T1 construct: from tissue; host or cells: rabbit lung
T1 sequence (P12822 34-1310): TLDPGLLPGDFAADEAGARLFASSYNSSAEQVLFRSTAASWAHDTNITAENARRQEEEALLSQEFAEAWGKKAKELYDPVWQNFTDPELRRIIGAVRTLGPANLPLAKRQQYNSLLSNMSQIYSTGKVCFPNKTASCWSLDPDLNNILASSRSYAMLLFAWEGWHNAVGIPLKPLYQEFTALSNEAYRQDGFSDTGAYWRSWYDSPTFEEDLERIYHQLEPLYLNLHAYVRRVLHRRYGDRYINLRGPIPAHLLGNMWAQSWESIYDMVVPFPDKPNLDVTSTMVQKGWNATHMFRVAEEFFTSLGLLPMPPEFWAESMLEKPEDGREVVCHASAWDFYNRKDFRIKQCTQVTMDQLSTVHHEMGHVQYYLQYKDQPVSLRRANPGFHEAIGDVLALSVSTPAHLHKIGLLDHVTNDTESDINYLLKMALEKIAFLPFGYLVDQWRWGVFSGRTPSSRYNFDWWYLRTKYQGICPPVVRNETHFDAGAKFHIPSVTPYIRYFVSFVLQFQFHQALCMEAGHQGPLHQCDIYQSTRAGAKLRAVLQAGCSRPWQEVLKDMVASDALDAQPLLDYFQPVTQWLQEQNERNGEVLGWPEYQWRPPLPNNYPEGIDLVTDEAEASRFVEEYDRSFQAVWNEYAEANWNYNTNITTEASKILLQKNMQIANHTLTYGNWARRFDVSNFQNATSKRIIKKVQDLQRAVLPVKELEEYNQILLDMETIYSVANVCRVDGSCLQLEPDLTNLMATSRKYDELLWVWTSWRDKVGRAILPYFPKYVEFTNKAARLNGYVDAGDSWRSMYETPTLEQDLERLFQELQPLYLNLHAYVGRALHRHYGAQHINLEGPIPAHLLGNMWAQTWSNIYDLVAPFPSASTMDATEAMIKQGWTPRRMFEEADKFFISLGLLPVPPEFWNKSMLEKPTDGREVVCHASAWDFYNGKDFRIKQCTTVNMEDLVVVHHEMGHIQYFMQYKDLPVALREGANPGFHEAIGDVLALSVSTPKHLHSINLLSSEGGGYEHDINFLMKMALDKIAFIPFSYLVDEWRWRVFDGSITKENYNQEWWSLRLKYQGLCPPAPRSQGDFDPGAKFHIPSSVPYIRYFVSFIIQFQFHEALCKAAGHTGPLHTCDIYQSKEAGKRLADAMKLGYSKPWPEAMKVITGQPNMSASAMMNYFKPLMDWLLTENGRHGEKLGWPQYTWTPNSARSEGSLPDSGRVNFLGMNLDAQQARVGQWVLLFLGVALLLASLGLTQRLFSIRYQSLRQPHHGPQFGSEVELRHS
Protocol: IC50 (M) = Concentration inhibiting 50% of the activity of rabbit
lung ACE was determined by the method of Friedland and Silverstein.

| IC50 (rabbit lung ACE) [M] | strength of activity relative to Lisinopril (rabbit lung ACE; ACE inhibition, compared with Lisinopril) | Structure (SMILES) | order of strength of activity [1] |
| --- | --- | --- | --- |
| – | – | CCOC(=O)[C@H](CCc1ccccc1)N[C@@H](C)C(=O)N1CCC[C@H]1C(=O)O [Enalapril] | Lisinopril>Enalapril>CV-3317 |
| – | – | CCOC(=O)[C@H](CCc1ccccc1)N[C@@H](C)C(=O)N(CC(=O)O)C1Cc2ccccc2C1 [CV-3317] | Lisinopril>Enalapril>CV-3317 |
| 1.1e-09 | – | NCCCC[C@H](N[C@@H](CCc1ccccc1)C(=O)O)C(=O)N1CCC[C@H]1C(=O)O [Lisinopril] | Lisinopril>Enalapril>CV-3317 |
| 1e-10 | more than 10 times | NCCCC[C@H](N[C@@H](CCC1CCCCC1)C(=O)O)C(=O)N(CC(=O)O)C1CCCC1 [N-[N^α -(1(S)-carboxy-3-cyclohexylpropyl)-L-lysyl]-N-cyclopentylglycine] | – |
